Data taken from ChEMBL document CHEMBL1155682, “Cernuosides A and B, two sucrase inhibitors from Pulsatilla cernua” (J Nat Prod, 2000).

Target: Sucrase-isomaltase, intestinal (Rattus norvegicus, UniProt P23739)
Experiment: Inhibition of rat intestinal sucrase

Sucrase-isomaltase, intestinal, sequence (P23739 1-1013 limits assumed): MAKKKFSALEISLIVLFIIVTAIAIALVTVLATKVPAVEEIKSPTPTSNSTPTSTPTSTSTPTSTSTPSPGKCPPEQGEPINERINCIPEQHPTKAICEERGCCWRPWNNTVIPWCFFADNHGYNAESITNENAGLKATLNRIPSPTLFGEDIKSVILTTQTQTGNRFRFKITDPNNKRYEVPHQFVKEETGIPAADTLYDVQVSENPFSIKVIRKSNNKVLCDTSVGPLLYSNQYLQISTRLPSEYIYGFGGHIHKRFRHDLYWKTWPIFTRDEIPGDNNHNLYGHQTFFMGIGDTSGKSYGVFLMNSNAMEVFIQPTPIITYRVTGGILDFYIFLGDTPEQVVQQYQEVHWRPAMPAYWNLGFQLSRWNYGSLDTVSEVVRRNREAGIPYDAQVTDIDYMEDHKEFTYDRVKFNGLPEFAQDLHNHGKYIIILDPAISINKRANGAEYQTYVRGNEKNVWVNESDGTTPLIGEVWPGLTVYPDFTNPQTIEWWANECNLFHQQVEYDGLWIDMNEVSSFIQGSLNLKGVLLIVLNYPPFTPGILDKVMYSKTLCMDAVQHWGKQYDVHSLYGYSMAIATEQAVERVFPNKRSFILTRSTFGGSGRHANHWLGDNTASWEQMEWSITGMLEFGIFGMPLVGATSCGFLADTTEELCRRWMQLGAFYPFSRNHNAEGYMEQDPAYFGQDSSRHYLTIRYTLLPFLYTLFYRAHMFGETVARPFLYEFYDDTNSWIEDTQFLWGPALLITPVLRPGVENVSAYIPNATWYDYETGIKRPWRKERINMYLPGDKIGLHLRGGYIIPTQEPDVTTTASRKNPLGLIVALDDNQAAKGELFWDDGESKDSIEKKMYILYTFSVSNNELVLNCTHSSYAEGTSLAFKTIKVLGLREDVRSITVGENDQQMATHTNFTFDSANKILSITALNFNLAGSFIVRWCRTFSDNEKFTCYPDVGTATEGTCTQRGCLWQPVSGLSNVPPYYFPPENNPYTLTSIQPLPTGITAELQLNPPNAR
Sucrase-isomaltase, intestinal, sequence (P23739 1014-1841 limits assumed): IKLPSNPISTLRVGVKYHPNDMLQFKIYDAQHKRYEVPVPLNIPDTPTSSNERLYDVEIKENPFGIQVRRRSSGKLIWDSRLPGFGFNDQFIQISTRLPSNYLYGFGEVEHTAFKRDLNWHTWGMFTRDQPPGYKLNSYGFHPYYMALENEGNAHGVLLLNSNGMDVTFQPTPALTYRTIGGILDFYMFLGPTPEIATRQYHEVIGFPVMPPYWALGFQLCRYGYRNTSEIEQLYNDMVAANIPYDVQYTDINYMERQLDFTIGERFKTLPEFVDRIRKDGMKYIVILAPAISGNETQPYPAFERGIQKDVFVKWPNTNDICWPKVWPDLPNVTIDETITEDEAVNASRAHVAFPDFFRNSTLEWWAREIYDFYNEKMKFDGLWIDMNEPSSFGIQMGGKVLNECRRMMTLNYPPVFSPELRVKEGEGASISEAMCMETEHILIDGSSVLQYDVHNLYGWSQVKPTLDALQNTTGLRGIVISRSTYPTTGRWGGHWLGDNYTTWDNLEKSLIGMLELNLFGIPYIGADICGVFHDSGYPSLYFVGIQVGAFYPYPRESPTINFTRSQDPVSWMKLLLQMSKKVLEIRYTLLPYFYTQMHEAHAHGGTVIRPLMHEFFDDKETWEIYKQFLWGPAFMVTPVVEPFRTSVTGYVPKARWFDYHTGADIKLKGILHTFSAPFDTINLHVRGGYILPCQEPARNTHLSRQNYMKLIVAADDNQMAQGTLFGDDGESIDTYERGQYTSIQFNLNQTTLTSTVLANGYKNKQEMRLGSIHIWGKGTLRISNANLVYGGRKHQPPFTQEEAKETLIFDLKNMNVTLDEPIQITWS

Row | IC50 [µM] | Compound
1 | 59.5 | C[C@@H]1O[C@@H](O[C@H]2[C@H](O)[C@@H](O)[C@H](OC[C@H]3O[C@@H](OC(=O)[C@]45CCC(C)(C)C[C@H]4C4=CC[C@@H]6[C@@]7(C)CC[C@H](O[C@@H]8OC[C@H](O[C@@H]9O[C@H](CO)[C@@H](O)[C@H](O)[C@H]9O)[C@H](O)[C@H]8O[C@@H]8O[C@@H](C)[C@H](O)[C@@H](O[C@@H]9O[C@H](CO)[C@@H](O)[C@H](O)[C@H]9O)[C@H]8O)C(C)(C)[C@@H]7CC[C@@]6(C)[C@]4(C)CC5)[C@H](O)[C@@H](O)[C@@H]3O)O[C@@H]2CO)[C@H](O)[C@H](O)[C@H]1O [CERNUOSIDE A]
2 | 45.8 | C[C@@H]1O[C@@H](O[C@H]2[C@H](O)[C@@H](O)[C@H](OC[C@H]3O[C@@H](OC(=O)[C@]45CCC(C)(C)C[C@H]4C4=CC[C@@H]6[C@@]7(C)CC[C@H](O[C@@H]8OC[C@H](O[C@@H]9O[C@H](CO)[C@@H](O)[C@H](O)[C@H]9O)[C@H](O)[C@H]8O[C@@H]8O[C@@H](C)[C@H](O)[C@@H](O[C@@H]9O[C@H](CO)[C@@H](O)[C@H](O)[C@H]9O)[C@H]8O)[C@@](C)(CO)[C@@H]7CC[C@@]6(C)[C@]4(C)CC5)[C@H](O)[C@@H](O)[C@@H]3O)O[C@@H]2CO)[C@H](O)[C@H](O)[C@H]1O [CERNUOSIDE B]
